Experiment [1] has as its system A549, H510, H345, and N417 lung cancer cell lines. Kind of experiment: Growth inhibition (MTT, BrdU) in lung cancer cell lines. The experiment is classed as cell-based. The following applies: all tested cell lines (A549, H510, H345, N417). How it is done:
(§1) Lung cancer cell lines used for PPAR analysis included A549, H510, H345, and N417. The FLAP inhibitor: MK886 and COX inhibitor: indomethacin, and combinations thereof, were used as AA inhibitors. PPARs for the analysis included PGJ2 (γ ligand); ciglitazone (γ agonist); LY171882 (γ receptor activator); and WY 14643 (α activator). In order to analyze PPARs in lung cancer cells, growth inhibition (MTT, BrdU); apoptosis (Caspase 3/7 and M30 IHC); and mRNA Northern analyses were performed.

In experiment [2] the test system is H510 cell line. Kind of experiment: M30 immunohistochemistry for apoptosis, H510. The experiment is classed as cell-based. As for the experimental part:
as §1
(§2) M30 Immunohistochemistry was performed to test for apoptosis in the various lung cancer cell lines. […] Apoptosis was also observed in the H345 and N417 cell lines, but PPAR induction was low and no significant increase in PPAR protein expression was observed when tested in combination with PGJ2. […] In summary, combinations of FLAP inhibitors, cyclooxygenase inhibitors, and PPARγ ligands generally had additive effects in reducing lung cancer cell line growth; this generally correlated with measures of enhanced apoptosis.

The test system of experiment [3] is PPARγ. Kind of experiment: Northern analysis, PPARγ mRNA in A549. In kind it is cell-based. How it is done:
as §1
(§3) Northern analysis was performed with untreated cells and cells treated with AA inhibitors: MK886, indomethacin, or the combination of MK886 and indomethacin. […] There was also no expression after 24 hours of exposure to AA inhibitors, confirming previous Northern analyses. […] In the H510 cell line, no expression for PPARγ was observed.

For experiment [4], the system named is PPARγ. Kind of experiment: Northern analysis, PPARγ mRNA in H345. The experiment is classed as cell-based. As for the experimental part:
as §1, §3

The test system of experiment [5] is H510 cell line. Kind of experiment: Apo-1 Caspase 3/7 apoptosis assay, H510. In kind it is cell-based. As for the experimental part:
as §1
(§4) Apoptosis was determined at particular time points using the Apo-1Caspase 3/7 assay.

For experiment [6], the system named is PPARα. Kind of experiment: RT-PCR for PPARα mRNA in breast cancer cell line ZR-75. The conditions noted are these: ZR-75, 5 μM, 24 and 48 hours. In kind it is cell-based. How it is done: (§5) Breast cancer cell line ZR-75 was grown in the presence of 5 μM inhibitors for 24 and 48 hrs, total RNA was isolated and RT-PCR performed for PPARα and PPARγ using specific primers. Results are presented as percent of control after normalizing with the actin values. The experiment was repeated three times. The error bars indicate standard deviation. […] All values were determined by assessment of % growth inhibition calculated from the optical density value, with a minimum of 6 replicates from at least three different experiments per cell line. The ligands included WY-14643 (open circles); LY 171883 (closed circles); fenofibrate (triangles); clofibrate (diamonds).
(§6) Cells were grown for 24 hrs or 48 hrs in the presence or absence of inhibitors at 5 μM concentration. RNA was isolated using the Trizol method (Life Technologies, Gaithersburg, Md.), and RT-PCR was performed using specific primers for PPAR and actin control genes.
(§7) Forward (F) and reverse (R) primers used to detect PPAR cDNAs were: […]
(§8) The ethidium bromide stained image was digitized and the optical density calculated using the NIH Image program. Values were normalized with the actin value obtained with commercially available primers (Clontech Inc., Palo Alto, Calif. ). These experiments were repeated three times.

The subject of experiment [7] is PPARγ. In words: RT-PCR for PPARγ mRNA in breast cancer cell line ZR-75. In kind it is cell-based. The following applies: ZR-75, 5 μM, 24 and 48 hours. How it is done: as §5, §6, §7, §8
Another experiment deals with 15-HETE. Kind of experiment: 15-HETE production after exposure to FLAP inhibitor. In kind it is cell-based. The following applies: in response to exposure to MK 886.
In experiment [8] the test system is PPARγ. In words: Northern blot analysis for PPARγ in T47D cells. The following applies: 5 μM MK886, 0, 6, 12, 24 hours. The experiment is classed as cell-based, human. As for the experimental part:
(§9) (A) Northern blot analysis for PPARγ (1.8 Kb), of breast cancer cell line T47D treated with 5 μM MK 886 for 6, 12, 24 hrs and untreated control. RNA was isolated as described in Methods, and […] of total RNA was loaded per lane. Ethidium bromide staining of 28S rRNA was used to check for equal loading and RNA integrity (lower panel). (B) RNA isolated from T47D cells treated with 5 μM MK 886 for different time periods were subjected to RT-PCR using specific primers for PPARγ. The PCR products were normalized to actin gene and 18S. PCR products were quantified by densitometry and the data points presented are expressed as percent of control, and represent mean and SEM of three experiments. (C) Breast cancer cell line T47D, was incubated with various concentrations of MK886 (circles) and then analyzed using a proliferation assay. After 12 hr incubation, the inhibitors were removed and replaced by media alone (open circles), or media with 4 μM LY 171883 (closed circles). LY 171883 in the presence of media without the FLAP inhibitor is shown (stars). […]
After treatment for the indicated time points (5 μM MK886 at 0, 6, 12, 24 hours), cells were washed with PBS and total RNA was extracted using the RNeasy Mini Kit (QUIAGEN Inc., Valencia, Calif.). […] Equal loading and integrity of RNA was monitored by ethidium bromide staining (FIG. 2A). […]

For experiment [9], the system named is PPARγ. Kind of experiment: Semi-quantitative RT-PCR for PPARγ in T47D cells. The experiment is classed as cell-based. The following applies: 5 μM MK886, different time periods. As for the experimental part: as §9, with “(stars). After an additional 24 hr incubation time, the experiments were terminated. All values were determined by assessment of % growth inhibition calculated from the optical density value, with a minimum of 6 replicates from at least three different experiments. The error bars indicate standard deviation.” for “(stars).”

Experiment [10] has as its system A549 cell line. In words: Apo-1 Caspase 3/7 apoptosis assay, A549. The experiment is classed as cell-based. As for the experimental part: as §1, §4
The subject of the next experiment is N417 cell line. Kind of experiment: Apo-1 Caspase 3/7 apoptosis assay, N417. In kind it is cell-based. As for the experimental part: as §1, §4
Another experiment concerns H345 cell line. Kind of experiment: Apo-1 Caspase 3/7 apoptosis assay, H345. In kind it is cell-based. As for the experimental part:
as §1, §4

Experiment [11] relates to PPARα. Kind of experiment: Northern analysis, PPARα mRNA in A549. The experiment is classed as cell-based. As for the experimental part:
as §1, §3

The subject of another experiment is PPARδ. In words: Northern analysis, PPARδ mRNA in A549. The experiment is classed as cell-based. As for the experimental part:
as §1, §3

Experiment [12] deals with ZR-75 breast cancer cell line. In words: Proliferation assay, breast cancer cell line ZR-75. The experiment is classed as cell-based. The conditions noted are these: ZR-75, compared to vehicle control. How it is done: as §5
Cell lines used in the study were obtained from the American Type Culture Collection (Rockville, Md.). They included MCF-7, ZR-75, T47 D; SKBR-3, and MB-231. The cells were maintained in RPMI-1640, or MEM Zinc option medium, supplemented with 5% fetal bovine serum (FBS), penicillin (50 units/ml) and streptomycin (50 μg/ml) (Life Technologies, Gaithersburg, Md.), in a humidified atmosphere of 95% air and 5% CO2 at 37° C.

Experiment [13] concerns T47D breast cancer cell line. In words: Proliferation assay, breast cancer cell line T47D. In kind it is cell-based. The conditions noted are these: compared to vehicle control. As for the experimental part: as §5
as §9, with “experiments.” for “experiments. (C) Breast cancer cell line T47D, was incubated with various concentrations of MK886 (circles) and then analyzed using a proliferation assay. After 12 hr incubation, the inhibitors were removed and replaced by media alone (open circles), or media with 4 μM LY 171883 (closed circles). LY 171883 in the presence of media without the FLAP inhibitor is shown (stars).”

Experiment [14] deals with A549 cell line. Kind of experiment: M30 immunohistochemistry for apoptosis, A549. The experiment is classed as cell-based. How it is done:
as §1, §2

“Also recorded” adds a separate entry of the source.

As for `CCCCC/C=C/C=C1/C(=O)C=C[C@@H]1C/C=C\CCCC(=O)O` [PGJ2, 15-Deoxy-Δ^12,14-Prostaglandin J2], the “growth of lung cancer cell lines” value in [1] is on record as “reduced growth in a dose dependent manner”. Further, in the experiment with H510 cell line [2], the “apoptosis (M30 immunohistochemistry)” value was “apoptosis in the H510 cell line was observed”. Further, the “PPARγ mRNA (Northern)” value with PPARγ [3] is recorded as “mRNA decreases to those levels observed with control”. Moreover, in the experiment on PPARγ [4], the “PPARγ expression (Northern)” value is listed as “down regulated mRNA”.

For `COc1ccc2c(c1)c(CC(=O)O)c(C)n2C(=O)c1ccc(Cl)cc1` [indomethacin], the “growth of lung cancer cell lines” value in experiment [1] is listed as “no effect on growth, even at a concentration of greater than 10 μM”. Also, the “apoptosis (Caspase 3/7)” value with H510 cell line [5] was “two fold induction of apoptosis”. The “apoptosis (M30 immunohistochemistry)” value in the experiment with H510 cell line [2] is “apoptosis in the H510 cell line was observed”. In addition, the “PPARγ mRNA (Northern)” value in the experiment on PPARγ [3] is “Up-regulation of PPARγ”.

Consider `CC(C)c1ccc2c(c1)c(SC(C)(C)C)c(CC(C)(C)C(=O)O)n2Cc1ccc(Cl)cc1` [MK886, 3-[1-(4-chlorobenzyl)-3-t-butyl-thio-5-isopropylindol-2-yl]-2,2-dimethylpropanoic acid], for which the PPARα expression entry in the experiment with PPARα [6] was “up-regulation”. Further, the PPARγ expression entry with PPARγ [7] is on record as “up-regulation”. In addition, the 15-HETE production result in the experiment on 15-HETE is “large increase”. Also, the “PPARγ expression (Northern blot)” value in the experiment on PPARγ [8] is on record as “induction of PPARγ is evident within six hours; also recorded: PPARγ expression levels increase”. In the experiment with PPARγ [9], the “PPARγ induction (semi-quantitative RT-PCR)” value is reported as “induction of PPARγ is more protracted”. The “growth of lung cancer cell lines” value in [1] is “inhibited all tested cell lines in a dose dependent manner ranging from 0.25 to 2.0 μM”. Further, the “apoptosis (Caspase 3/7)” value with A549 cell line [10] was “increased apoptosis”; in the experiment on N417 cell line it was “two fold increase in apoptosis”; with H510 cell line [5], “two fold induction of apoptosis”; with H345 cell line, “induced apoptosis”. The “apoptosis (M30 immunohistochemistry)” value with H510 cell line [2] is on record as “apoptosis in the H510 cell line was observed”. In addition, in the experiment with PPARγ [3], the “PPARγ mRNA (Northern)” value is “Up-regulation of PPARγ”. For the same compound, the “PPARα mRNA (Northern)” value in the experiment on PPARα [11] is “no mRNA for PPARα”. In addition, in the experiment on PPARδ, the “PPARδ mRNA (Northern)” value is “some mRNA observed for PPARδ”. Also, the “PPARγ expression (Northern)” value with PPARγ [4] was “PPARγ expression was induced”.

On to `CC1(COc2ccc(CC3SC(=O)NC3=O)cc2)CCCCC1` (racemic) [ciglitazone, (±)-5-[4-(1-Methylcyclohexylmethoxy)-benzyl] thiazolidine-2,4-dione], for which the “growth of lung cancer cell lines” value in experiment [1] was “reduced growth in a dose dependent manner”. Besides, the “apoptosis (Caspase 3/7)” value in the experiment with H345 cell line is recorded as “induced apoptosis”.

For the compound `CC(Cc1ccc(O)c(O)c1)C(C)Cc1ccc(O)c(O)c1` (stereo not drawn) [NDGA, Nordihydroguaiaretic acid], in the experiment on PPARα [6], the PPARα expression entry is listed as “up-regulation”. Moreover, the PPARγ expression entry with PPARγ [7] is on record as “up-regulation”.

On to `CCCc1c(OCCCCc2nnn[nH]2)ccc(C(C)=O)c1O` [LY 171883], for which the “breast tumor cell growth” value in experiment [12] and in [13] was “dose dependent growth reduction” throughout. Further, in the experiment on H345 cell line, the “apoptosis (Caspase 3/7)” value was “neither LY171882 or WY 14643 (α activator) induced apoptosis”. In addition, in the experiment on A549 cell line [14], the “apoptosis (M30 immunohistochemistry)” value is reported as “Some apoptosis also occurred”.

In the case of `CCOC(=O)C(C)(C)Oc1ccc(Cl)cc1` [clofibrate, 2-(4-chlorophenoxy)-2-methylpropanoic acid ethyl ester], the “breast tumor cell growth” value in experiment [12] and in [13] was “dose dependent growth reduction” throughout.

The values are drawn from patent publication US6756399B2, “Use of lipoxygenase inhibitors and PPAR ligands as anti-cancer therapeutic and intervention agents” (The United States of America as represented by the …, priority 2001, dated 2004).
